Entries after “also recorded” stand apart in the source; their conditions may differ.
Tests used:
Assay type in all cases: physicochemical
[1] = Light stability test (25° C., 4500 Lux, 30 days; HPLC purity and XRPD); settings: light conditions
Description: (§1) Light stability: samples of a raw drug of Elagolix sodium and an eutectic form A formed by Elagolix and pyrimethamine (prepared in Comparative example 1 and Example 1, respectively) were taken and separately placed at 25° C. under light conditions of 4500 Lux for 30 days, sampling was conducted at fixed time points on day 5, day 10 and day 30, respectively to determine the XRPD pattern of the eutectic form A, and the content of Elagolix in the raw drug of Elagolix sodium and the eutectic form A, and the determined XRPD pattern of the eutectic form A, and the determined content of Elagolix in the raw drug of Elagolix sodium and the eutectic form A were compared with those on day 0.
(§2) The specific stability test method can refer to the method in Appendix XIC of Part II of Chinese Pharmacopoeia (2015 Edition); and the purity was detected by an HPLC method, and can be determined by an external standard method with reference to the method in Appendix VD of Chinese Pharmacopoeia (2015 Edition) by using the sample on day 0 as a control.
(§3) Operating Conditions for HPLC
• Instrument: high performance liquid chromatograph (model: Agilent Technologies 1260) • Chromatographic column: shiseido CAPCELL PAK C18 column (5 μm, 250 mm×4.6 mm) Mobile Phase Composition and Gradient Elution Procedure: […]

[2] = High temperature stability test (60° C., 30 days; HPLC purity and XRPD)
Description: as §1, with “High temperature” for “Light”, “60°” for “25°”, “C.” for “C. under light conditions of 4500 Lux”, “of” for “of Elagolix in”
as §2, §3
(§4) • Instrument: high performance liquid chromatograph (model: Agilent Technologies 1260) • Chromatographic column: shiseido CAPCELL PAK C18 column (5 μm, 250 mm×4.6 mm) Mobile Phase Composition and Gradient Elution Procedure:
(§5) • Detection wavelength: 254 nm • Flow rate: 1 mL/min • Injection volume: 10 μL • Column temperature: 30° C.

[3] = High humidity stability test (25° C., 92.5% RH, 30 days; HPLC purity and XRPD)
Description: as §1, with “High humidity” for “Light”, “at 92.5% RH” for “under light conditions of 4500 Lux”, “of” for “of Elagolix in”
as §2, §3, §4, §5

Light stability (in words) [1]: not good; also recorded: unstable
High temperature stability (in words) [2]: not good; also recorded: unstable
High humidity stability (in words) [3]: not good; also recorded: unstable
Compound: COc1cccc(-c2c(C)n(Cc3c(F)cccc3C(F)(F)F)c(=O)n(C[C@H](NCCCC(=O)O)c3ccccc3)c2=O)c1F [Elagolix sodium]

— US12268689B2, “Eutectic form A of Elagolix and pyrimethamine, preparation method therefor and use thereof” (Shenzhen Rentai Pharmatech Ltd., priority 2019, dated 2025)
